Laboratory results: ChEMBL document CHEMBL1150142, “New onoceranoid triterpene constituents from Lansium domesticum” (J Nat Prod, 2002)
Activity calls are given as the source filed them. No cut-off for these calls is given here.

experiment: Inhibition of trypsin

For C=C1CC[C@H]2C(C)(C)[C@@H](O)CC[C@]2(C)[C@H]1CC[C@H]1C(C)=CC[C@H]2C(C)(C)C(=O)CC[C@]12C, which Activity is on record?
Its Activity is “inactive”.

With C=C1CC[C@H]2C(C)(C)C(=O)CC[C@]2(C)[C@H]1CC[C@H]1C(C)=CC[C@H]2C(C)(C)[C@@H](O)CC[C@]12C as the compound, how does the Activity read?
The Activity was “inactive”.

With C=C(C)[C@@H]1CC=C(C)[C@H](CC[C@H]2C(=C)CC[C@H]3C(C)(C)C(=O)CC[C@]23C)[C@@]1(C)CCC(=O)O as the compound, how does the Activity read?
Its Activity is “inactive”.

With C=C(C)[C@@H]1CCC(=C)[C@H](CC[C@H]2C(C)=CC[C@@H](C(=C)C)[C@]2(C)CCC(=O)O)[C@@]1(C)CCC(=O)O as the compound, how does the Activity read?
Its Activity is “inactive”.

For C=C(C)[C@@H]1CC=C(C)[C@H](CC[C@H]2C(=C)CC[C@H]3C(C)(C)C(=O)CC[C@]23C)[C@@]1(C)CCC(=O)OC, which Activity is on record?
Its Activity is “inactive”.
